Assays:
A549 cells = assay: Cell viability assay (Cell-Titer GLO); assay type: cell-based, human; conditions: Homo sapiens; A549; Lung cancer; 48 h; read-out: Anti-proliferative EC50
Experimental: The media was according to culture conditions of each individual cell line (mentioned above). After 12 hrs, compounds were added in a total volume of 5 μL of media (two-fold diluted) to each well with final concentrations from 5 nM to 30 μM. The measurements were conducted 48 hrs after seeding of the cells. Then, 25 μL of Cell-Titer GLO reagent (Promega) was added, and luminescence was measured on an EnSpire multimode plate reader (PerkinElmer), according to the manufacturer’s instructions. The estimated in vitro half-maximal inhibitory concentration (EC50) values were calculated using GraphPad Prism® v6.0 (San Diego, CA) software. The cell viability for A549 cells was also performed for 72- and 96-hrs by using the same experimental conditions as described above.

[1] = molecular target: T1, Skp1-ΔSkp2^F−box-peptide interaction (Homo sapiens, UniProt P63208); assay: FP-based in vitro competition assay; assay type: binding; conditions: 200 μM compound, 25 μM Skp1^WT, 500 nM tracer
T1 construct: recombinantly purify intact (Skp1^WT) and truncate (ΔSkp1^1−140; lacking H8-helix) forms of Skp1; His6; made in house; host or cells: Escherichia coli BL21 (DE3)
Experimental: FP measurements were performed using an EnVision multilabel Reader (Perkin Elmer). […] Lyophilized F-box-FAM peptide was initially dissolved in a Tris buffer (20 mM Tris-HCl pH 9.0, 150 mM NaCl, 2 mM DTT), and then a stock solution of 100 μM was prepared by subsequent dilutions in a FP buffer (20 mM Tris-HCl pH 8.0, 150 mM NaCl, 2 mM DTT, 5% (v/v) glycerol, 0.001% (v/v) Triton X-100). Specific controls groups included free F-box-FAM (tracer), bound F-box-FAM in the presence of protein (Skp1^WT or ΔSkp1^1−140), and FP buffer for every measurement, allowing accurate estimation of specific polarization.
The selected subset of compounds were initially assayed at final concentration of 200 μM. The compounds were incubated at room temperature with Skp1^WT for 1 hr, followed by the addition of the tracer. […] After incubation for another 2 hrs, FP signals was measured on an EnVision multilabel Reader. The FP response was measured in quadruplicates with controls including free F-box-FAM (tracer), bound Skp1^WT-F-box-FAM, and FP buffer. The resultant FP values were plotted as bar graphs using ORIGIN Lab software.
For gradient FP assay, protein samples were mixed with an appropriate concentrations of ligand over the range of several folds. […] The IC50 value of the compound in the gradient-concentration assay was determined with nonlinear regression and fitting using the following equation in GraphPad Prism® v6.0 (San Diego, CA). Y = Bottom + (Top – Bottom)/(1 + 10^X−LogIC50). […] In short, the relationship between the IC50 of the inhibitor and the Ki of the inhibitor depends on the KD of the fluorescent ligand and the concentration of the receptor.

T1 sequence (P63208 whole entry, stated change not applied, the tested form may be a part): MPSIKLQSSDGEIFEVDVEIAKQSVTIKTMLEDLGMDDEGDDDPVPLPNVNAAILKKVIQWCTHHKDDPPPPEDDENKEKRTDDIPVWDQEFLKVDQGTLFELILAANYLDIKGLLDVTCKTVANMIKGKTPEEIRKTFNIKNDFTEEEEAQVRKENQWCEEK

C/C=C(/C)C(=O)O[C@H]1[C@@H]2[C@H](C)C(=O)O[C@@H]2C[C@@H](C)[C@@H]2C=CC(=O)[C@]21C [6-OAP, Brevilin A, reference compound]
EC50 (A549 cells): 14.1 ± 2.25 µM

COc1ccc(-c2cc(-c3cccc(N)c3)ccn2)cc1 [JH-3, 3-(2-(4-Methoxyphenyl)pyridin-4-yl)aniline]
inhibition at 200 µM [1]: > 50%

Source: PMC9249674, “A small-molecule Skp1 inhibitor elicits cell death by p53-dependent mechanism” (iScience, 2022)
